Reference: the supplement of paper PMC10307832

Compound: Cc1nc(NC(=O)N2CCC[C@H]2C(N)=O)sc1-c1ccnc(C(C)(C)C(F)(F)F)c1 [Alpelisib] + CC(=O)Nc1cccc(-n2c(=O)n(C3CC3)c(=O)c3c(Nc4ccc(I)cc4F)n(C)c(=O)c(C)c32)c1 [Trametinib] (partner 0.02 µM)
Assay: relative viability (nuclei count vs DMSO), 5 days (fraction); higher = more cells survive
Conditions: first compound 0.04 µM
Outline: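 Dosing by pin tool came one day after lung cancer cell lines were seeded in 1536-well plates, using either one drug or a fixed anchor-drug dose plus five library-drug doses (not always all listed) in √10 steps. After 5 days, nuclei were counted on 4× images. Relative viability is treated-well nuclei count divided by vehicle-well nuclei count, and values are medians of duplicate plates.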

Cell Line | relative viability
NCI-H1355 | 0.397
HCC-366 | 0.337
NCI-H1915 | 0.307
NCI-H838 | 0.419
A-427 | 0.717
NCI-H2009 | 0.264
NCI-H2170 | 0.91
NCI-H522 | 0.673
CAL-12T | 0.371
NCI-H2228 | 0.415
SW 900 | 0.733
HCC-78 | 0.578

Same assay, conditions: first compound 0.1265 µM

Cell Line | relative viability
NCI-H2126 | 0.504
EPLC-272H | 0.255
NCI-H1755 | 0.726
NCI-H2023 | 0.452
NCI-H1650 | 0.487
NCI-H1793 | 0.289
NCI-H2342 | 0.854
H3255 | 0.541
NCI-H1975 | 0.315
PC-14 | 0.686
NCI-H1437 | 0.492
HOP-62 | 0.376
HCC-44 | 1.12
BEN | 1.17
LOU-NH91 | 0.686
NCI-H661 | 0.593
NCI-H1651 | 0.828
PC-3 [JPC-3] | 0.602

Cell Line | relative viability
SW 1573 | 0.586
LK-2 | 0.829
NCI-H2405 | 0.641
NCI-H1648 | 0.496
NCI-H1993 | 0.477
ChaGo-K-1 | 0.963
NCI-H1355 | 0.421
HCC-366 | 0.289
NCI-H1915 | 0.304
NCI-H838 | 0.483
A-427 | 0.624
NCI-H2009 | 0.276
NCI-H2170 | 0.857
NCI-H522 | 0.756
CAL-12T | 0.259
NCI-H2228 | 0.536
HCC-78 | 0.779

Same assay, conditions: first compound 0.4 µM

Cell Line | relative viability
NCI-H2126 | 0.526
EPLC-272H | 0.315
NCI-H1755 | 0.718
NCI-H2023 | 0.538
NCI-H1650 | 0.638
NCI-H1793 | 0.536
NCI-H2342 | 0.671
H3255 | 0.642
NCI-H1975 | 0.317
PC-14 | 0.62
NCI-H1437 | 0.539
HOP-62 | 0.434
HCC-44 | 1.03
BEN | 1.17
LOU-NH91 | 0.696
NCI-H661 | 0.645
NCI-H1651 | 0.807
PC-3 [JPC-3] | 0.685

Cell Line | relative viability
SW 1573 | 0.553
LK-2 | 0.738
NCI-H2405 | 0.549
NCI-H1648 | 0.472
NCI-H1993 | 0.5
ChaGo-K-1 | 0.856
NCI-H1355 | 0.386
HCC-366 | 0.233
NCI-H1915 | 0.312
NCI-H838 | 0.515
A-427 | 0.681
NCI-H2009 | 0.28
NCI-H2170 | 0.921
NCI-H522 | 0.683
CAL-12T | 0.378
NCI-H2228 | 0.399
SW 900 | 1.11
HCC-78 | 0.816

Same assay, conditions: first compound 1.265 µM

Cell Line | relative viability
NCI-H2126 | 0.416
EPLC-272H | 0.238
NCI-H1755 | 0.72
NCI-H2023 | 0.287
NCI-H1650 | 0.505
NCI-H1793 | 0.406
NCI-H2342 | 0.604
H3255 | 0.422
NCI-H1975 | 0.258
PC-14 | 0.292
NCI-H1437 | 0.382
HOP-62 | 0.384
HCC-44 | 0.849
BEN | 0.863
LOU-NH91 | 0.649
NCI-H661 | 0.52
NCI-H1651 | 0.759
PC-3 [JPC-3] | 0.655

Cell Line | relative viability
SW 1573 | 0.363
LK-2 | 0.384
NCI-H2405 | 0.369
NCI-H1648 | 0.296
NCI-H1993 | 0.483
ChaGo-K-1 | 0.756
NCI-H1355 | 0.356
HCC-366 | 0.138
NCI-H1915 | 0.285
NCI-H838 | 0.405
A-427 | 0.484
NCI-H2009 | 0.285
NCI-H2170 | 0.666
NCI-H522 | 0.681
CAL-12T | 0.266
NCI-H2228 | 0.314
SW 900 | 0.761
HCC-78 | 0.458

Same assay, conditions: first compound 4 µM

Cell Line | relative viability
NCI-H2126 | 0.381
EPLC-272H | 0.231
NCI-H1755 | 0.668
NCI-H2023 | 0.208
NCI-H1650 | 0.544
NCI-H1793 | 0.39
NCI-H2342 | 0.67
H3255 | 0.391
NCI-H1975 | 0.177
PC-14 | 0.709
NCI-H1437 | 0.304
HOP-62 | 0.384
HCC-44 | 0.81
BEN | 1.03
LOU-NH91 | 0.591
NCI-H661 | 0.462
NCI-H1651 | 0.561
PC-3 [JPC-3] | 0.578

Cell Line | relative viability
SW 1573 | 0.388
LK-2 | 0.365
NCI-H2405 | 0.381
NCI-H1648 | 0.245
NCI-H1993 | 0.49
ChaGo-K-1 | 0.586
NCI-H1355 | 0.292
HCC-366 | 0.13
NCI-H1915 | 0.26
NCI-H838 | 0.421
A-427 | 0.501
NCI-H2009 | 0.224
NCI-H2170 | 0.549
NCI-H522 | 0.542
CAL-12T | 0.193
NCI-H2228 | 0.123
SW 900 | 0.745
HCC-78 | 0.53
